What was measured:
[1] = tested on: primary hippocampal neurons; assay: Antagonist pre-treatment studies of neuronal structural change, Sholl analysis; type: cell-based, rat; details: for neuronal structural complexity (normalised AUC): meta-analysis
Description: Primary hippocampal cultures were grown on 18 mm glass coverslips at a density of 1×10^6 cells as described. On 3 DIV all cells underwent a full medium change. […] On 4 DIV, all cells underwent a second full medium change. Cells in the combination group were treated with 2 μM 5-MeO-DMT for a further 24 hours with all other groups beginning a 24-hour treatment. After treatment was completed the cells were fixed and processed as described below.
Based on the findings with other psychedelic drugs that share structural and behavioral similarities to 5-MeO-DMT we selected ANA-12 (Sigma), an antagonist of TrkB, the BDNF receptor, and rapamycin (ThermoFischer) an antagonist of the mammalian target of rapamycin (mTOR). Due to the affinity and known behavioral change induced by 5-MeO-DMT at the 5-HT1AR and 5-HT2AR we assessed their contribution to structural changes mediated by 5-MeO-DMT. The receptors were antagonized with WAY-100635 maleate (Tocris) or Ketanserin (Axxora), respectively. For all antagonist studies the antagonist under investigation was added 15 mins prior to drug treatment. […] ANA-12, Ketanserin and rapamycin were dissolved in dimethyl sulfoxide (DMSO) with a final concentration of 0.01-0.04% for treatment. WAY100635 was dissolved in sterile dH2O.
After termination of drug treatment coverslips were processed and imaged as outlined for immunocytochemistry. In all instances NeuN antibody staining was used to visualize projections from the cell body. Images were analyzed using the Simple Neurite Tracer and Sholl analysis plug-ins for ImageJ Fiji. For the Sholl analysis circle radii of 2 μm increments were used. All images were taken and analyzed by an experimenter blinded to treatment conditions.
Statistical Analysis—Data are represented as mean±SEM. Statistical analyses were performed using GraphPad Prism (version 5). For analyses involving comparison of three or more groups, a one-way ANOVA with Bonferroni's post-hoc test was utilized where appropriate. No statistics were calculated for the individual points of the Sholl plots, instead, statistical analyses were performed on the aggregate data, the area under the curve (AUC) of the Sholl plot. Secondary measurements were the Nmax, the maximum number of intersections measured by the Sholl analysis, which indicated the number of projections emanating from a neuron and the average length of primary neurites originating from the cell soma.

5-HT2AR = 5-HT2AR (Homo sapiens, UniProt P28223); details: metabolite of 5-MeO-DMT; cited from earlier work
5-HT2AR, sequence (P28223 whole entry): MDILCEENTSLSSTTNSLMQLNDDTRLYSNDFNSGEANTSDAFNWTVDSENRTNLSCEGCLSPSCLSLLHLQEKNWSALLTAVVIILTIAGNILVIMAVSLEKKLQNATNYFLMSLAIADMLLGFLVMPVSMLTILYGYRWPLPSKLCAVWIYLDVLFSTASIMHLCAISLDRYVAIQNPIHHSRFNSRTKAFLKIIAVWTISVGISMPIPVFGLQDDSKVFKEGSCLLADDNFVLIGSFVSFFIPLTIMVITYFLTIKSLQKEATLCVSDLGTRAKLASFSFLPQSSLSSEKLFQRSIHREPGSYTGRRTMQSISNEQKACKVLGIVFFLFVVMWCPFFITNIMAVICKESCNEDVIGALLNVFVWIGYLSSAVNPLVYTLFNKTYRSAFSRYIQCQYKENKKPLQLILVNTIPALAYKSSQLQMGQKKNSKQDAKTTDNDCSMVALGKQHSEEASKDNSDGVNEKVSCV

hippocampal proteins = assay: Hippocampal LC-MS/MS proteomics, chronic cocaine with single psychedelic administration; type: in vivo, Male Wister rats; details: for differential expression of proteins in the control hippocampus: single i.p. dose (5-MeO-DMT 5 mg/kg, LSD 0.14 mg/kg, psilocybin 1 mg/kg, DOI 1 mg/kg) vs saline-saline, p<0.05, FC ±20%; for differential expression of proteins in the chronic cocaine hippocampus: single i.p. dose after 14 days cocaine 20 mg/kg (5-MeO-DMT 5, LSD 0.14, psilocybin 1, DOI 1 mg/kg) vs cocaine-saline; for reversal of chronic cocaine mediated proteomic changes in the hippocampus: single treatment (5-MeO-DMT 5, LSD 0.14, psilocybin 1, DOI 1 mg/kg i.p.)
Description: (§1) Animals were then randomly allocated to one of five groups and received a single i.p. injection of one of vehicle, 5 mg/kg 5-Meo-DMT, 0.14 mg/kg LSD, 1 mg/kg psilocybin, or 1 mg/kg DOI. On day 15, animals were euthanised and the hippocampus blunt dissected, snap frozen in liquid nitrogen and stored at −80° C. until further processing.
Protein from hippocampal tissue was processed for liquid chromatography tandem Mass Spectrometry (LC-MS/MS). Samples were run on a Thermo Scientific Q Exactive Mass Spectrometer connected to a Dionex Ultimate 3000 (RSLCnano) chromatography system in the UCD Conway Institute Core Mass Spectrometry Facility. Peptide and protein identification of MS/MS spectra were searched against the rat UniProt database using carbamidomethylation (C) as a fixed modification and acetylation (protein N terminus) and oxidation (M) as variable modifications with a false discovery rate filtering of 0.01. MaxQuant was using to generate label-free quantitative (LFQ) ion intensities and the Perseus statistical software contained in the MaxQuant package was used to analyse LFQ ion intensity. Statistical significance (p<0.05, FC±20%) of mean LFQ intensity between treatment groups was determined by two sample t-test. […] Networks were visualised using the stringApp (version 1.6.0) plugin for the Cytoscape software platform (version 3.8.2).

[2] = tested on: top 10 cocaine-dysregulated biological pathways in the hippocampus; assay: Biological pathway analysis (IPA) of transcriptomics, cocaine-dysregulated pathways; type: in vivo, Male Wister rats; details: single treatment
Description: as §1
Subsequent pathway analyses were done using Ingenuity Pathway Analysis (IPA). Analysis settings for IPA included the Ingenuity Knowledge Base (Genes Only), direct and indirect relationships, and endogenous chemicals of the previously filtered list of differentially expressed genes. IPA was filtered to only consider molecules where the species were human, rat, or mouse and the confidence can be experimentally observed. Canonical pathways were utilized in pathway analysis, where the spreadsheet organized the values of significance to −log(p-value) and the rate of regulation to the z-score. Negative z-score values indicate downregulation and positive values indicate upregulation.

[3] = ketanserin 100 μM treated groups relative to control

For `O=C(c1ccc(F)cc1)C1CCN(CCn2c(=O)[nH]c3ccccc3c2=O)CC1` [Ketanserin], the average neurite length [1, 3] was “significantly decreased”, the “maximum number of intersections (Nmax)” value [1, 3] was “significantly reduced” and the “normalised AUC of the Sholl plot” value ([1]; ketanserin 100 μM, 15 min pre-treatment, all treatment groups) was “significantly reduced normalised AUC across all treatment groups”. The “neuronal structural complexity (normalised AUC)” value ([1]; ketanserin pre-treatment) was “significantly reduced normalised AUC across all treatment groups”.

For `CN(C)CCc1c[nH]c2ccc(O)cc12` [bufotenine, 5-hydroxy,N,Ndimethyltryptamine], the “affinity for the 5-HT2AR relative to the parent compound” value (5-HT2AR) is listed as “much higher affinity for the 5-HT2AR than the parent compound”.

For `CN(C)CCc1c[nH]c2cccc(OP(=O)(O)O)c12` [psilocybin, Psilocybin], the “differential expression of proteins in the control hippocampus” value (hippocampal proteins) was 91 proteins, the “differential expression of proteins in the chronic cocaine hippocampus” value (hippocampal proteins) was 45 proteins and the “reversal of chronic cocaine mediated proteomic changes in the hippocampus” value (hippocampal proteins) was 74%. The “number of the top 10 dysregulated pathways corrected” value [2] was 7 pathways and the “top 10 cocaine-dysregulated biological pathways corrected” value [2] was 70%.

With `COc1ccccc1N1CCN(CCN(C(=O)C2CCCCC2)c2ccccn2)CC1.O=C(O)/C=C\C(=O)O` [WAY100635, WAY-100635 maleate] the average neurite length ([1]; WAY100635 100 nM pre-treatment before 5-MeO-DMT) was “prevented the 5-Meo-mediated increase in neurite length”, the “maximum number of intersections (Nmax)” value ([1]; WAY100635 100 nM treated groups relative to vehicle treated pairings) was “significantly reduced” and the “normalised AUC of the Sholl plot” value ([1]; WAY100635 100 nM, 15 min pre-treatment before 5-MeO-DMT or cocaine) was “prevented the 5-Meo- and cocaine-induced increase in normalised AUC”. For the same molecule, the “neuronal structural complexity (normalised AUC)” value ([1]; WAY100635 pre-treatment) was “prevented the increase in complexity mediated by all treatments”.

In the case of `COc1cc(CC(C)N)c(OC)cc1I` (stereo not drawn) [DOI, 2,5-Dimethoxy-4-iodoamphetamine], the “differential expression of proteins in the control hippocampus” value (hippocampal proteins) is reported as 79 proteins, the “differential expression of proteins in the chronic cocaine hippocampus” value (hippocampal proteins) is reported as 55 proteins and the “reversal of chronic cocaine mediated proteomic changes in the hippocampus” value (hippocampal proteins) is reported as 70%.

For `CCN(CC)C(=O)[C@@H]1C=C2c3cccc4[nH]cc(c34)C[C@H]2N(C)C1` [LSD, Lysergic acid diethylamide], the “differential expression of proteins in the control hippocampus” value (hippocampal proteins) was 73 proteins, the “differential expression of proteins in the chronic cocaine hippocampus” value (hippocampal proteins) was 57 proteins and the “reversal of chronic cocaine mediated proteomic changes in the hippocampus” value (hippocampal proteins) was 59%. For the same molecule, the “number of the top 10 dysregulated pathways corrected” value [2] was 5 pathways and the “top 10 cocaine-dysregulated biological pathways corrected” value [2] was 50%.

In the case of `O=C(Nc1ccccc1C(=O)NC1CCCCNC1=O)c1cc2ccccc2s1` (stereo not drawn) [ANA-12], the average neurite length ([1]; ANA-12 10 μM pre-treatment, 5-MeO-DMT-induced increase) is reported as “blocked”, the “AUC of the Sholl plot” value ([1]; ANA-12 10 μM, 15 min pre-treatment before 5-MeO-DMT, cocaine or combination) is reported as “prevented the 5-Meo-, cocaine- or combination-induced increase in AUC” and the “maximum number of intersections (Nmax)” value ([1]; ANA-12 pre-treated combination group relative to vehicle pre-treated combination group) is reported as “significantly reduced”. For the same molecule, the “AUC of the Sholl plot” value ([1]; control+ANA-12 vs control+vehicle (basal complexity)) was “no difference in AUC” and the “neuronal structural complexity (normalised AUC)” value ([1]; ANA-12 pre-treatment) was “prevented the 5-Meo-, cocaine- or combination-induced increase in complexity”.
